In this assay the target is T1, Renin (Homo sapiens, UniProt P00797).
T1 construct: Das Blut wird von freiwilligen Probanden gewonnen; from tissue; host or cells: human blood plasma (EDTA) from volunteers
T1 sequence (P00797 67-406): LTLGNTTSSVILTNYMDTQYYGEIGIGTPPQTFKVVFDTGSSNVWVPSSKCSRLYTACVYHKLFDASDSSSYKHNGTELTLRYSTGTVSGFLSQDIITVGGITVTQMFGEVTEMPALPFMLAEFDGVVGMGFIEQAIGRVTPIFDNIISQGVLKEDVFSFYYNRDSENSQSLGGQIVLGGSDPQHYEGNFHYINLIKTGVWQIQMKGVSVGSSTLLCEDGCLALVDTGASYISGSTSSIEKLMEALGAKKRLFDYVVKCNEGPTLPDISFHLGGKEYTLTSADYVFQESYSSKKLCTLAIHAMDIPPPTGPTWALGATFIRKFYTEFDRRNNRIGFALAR
Description: Renin inhibition in human plasma (angiotensin I release, radioimmunoassay). The format is biochemical. The following applies: 37°C, 1 h incubation, phosphate buffer pH 7.4, max. 1 % DMSO, read from % residual plasma renin activity vs. concentration, read-out: IC₅₀. On the procedure:
Die Wirksamkeit von Renin-Hemmern kann durch in-vitro-Tests überprüft werden. Hierbei wird die Verminderung der Bildung von Angiotensin I in verschiedenen Systemen (Humanplasma, gereinigtes Humanrenin) gemessen.
Z.B. Humanplasma, welches sowohl Renin als auch Angiotensinogen enthält, wird bei 37°C mit der zu testenden Verbindung inkubiert. Dabei wird aus Angiotensinogen unter der Einwirkung von Renin Angiotensin I freigesetzt, das anschließend mit einem handelsüblichen Radioimmunoassay gemessen werden kann. Diese Angiotensin-Freisetzung wird durch Renin-Inhibitoren gehemmt.
Das Blut wird von freiwilligen Probanden gewonnen (ca. 0,5 l pro Person; Bluko-Entnahmegerät der Fa. ASID Bonz und Sohn, Unterschleißheim) und in teilweise evakuierten Flaschen unter Eiskühlung aufgefangen. Die Gerinnung wird durch Zugabe von EDTA (Endkonzentration 10 mM) verhindert. Nach dem Zentrifugieren (Rotor HS 4 (Sorvall), 3 500 Upm, 0-4°C, 15 min; wiederholen, falls erforderlich) wird das Plasma vorsichtig abpipettiert und in geeigneten Portionen bei -30°C eingefroren. Für den Test werden nur Plasmen mit ausreichend hoher Reninaktivität verwendet. Plasmen mit niedriger Reninaktivität werden durch eine Kältebehandlung (-4°C, 3 Tage) aktiviert (Prorenin → Renin).
Angiotensin I wird mit dem Renin-Maia®-Kit (Serono Diagnostics S.A., Coinsins, Schweiz) bestimmt. Die Inkubation des Plasmas wird nach der dort angegebenen Anleitung durchgeführt: Inkubationsansatz: 1000 µl Plasma (bei 0-4°C aufgetaut) 100 µl Phosphatpuffer (pH 7,4) Zusatz von 10⁻⁴ M Ramiprilat) 10 µl PMSF-Lösung 10 µl 0,1 % Genapol PFIC 12 µl DMSO bzw. Testpräparat
Die Testpräparate werden i.a. 10⁻² M in 100 % Dimethylsulfoxid (DMSO) gelöst und mit DMSO entsprechend verdünnt; der Inkubationsansatz enthält max. 1 % DMSO.
Die Ansätze werden in Eis gemischt und für 1 Stunde zur Inkubation in ein Wasserbad (37°C) gestellt. Aus einem zusätzlichen Ansatz ohne Inhibitor werden ohne weitere Inkubation insgesamt 6 Proben (jeweils 100 µl) zur Bestimmung des Ausgangs-Angiotensin I-Gehaltes des verwendeten Plasmas entnommen.
Die Konzentrationen der Testpräparate werden so gewählt, daß etwa der Bereich von 10-90 % Enzymhemmung abgedeckt ist (mindestens fünf Konzentrationen). Am Ende der Inkubationszeit werden aus jedem Ansatz drei 100 µl-Proben in vorgekühlten Eppendorf-Gefäßen auf Trockeneis eingefroren und bei ca. -25°C für die Angiotensin I-Bestimmung aufbewahrt (Mittelwert aus drei Einzelproben).
Es wird exakt der Gebrauchsanweisung des RIA-Kits (Renin-Maia®-Kit, Serono Diagnostics S.A., Coinsins, Schweiz) befolgt.
Die Eichkurve umfaßt den Bereich von 0,2 bis 25,0 ng Angiotensin I pro ml. Der Basis-Angiotensin I-Gehalt des Plasmas wird von allen Meßwerten abgezogen. Die Plasma-Renin-Aktivität (PRA) wird als ng Ang I/ml x Stunde angegeben. PRA-Werte in Gegenwart der Testsubstanzen werden auf einen Ansatz ohne Inhibitor (= 100 %) bezogen und als % Restaktivität angegeben. Aus der Auftragung von % Restaktivität gegen die Konzentration (M) des Testpräparates (logarithmische Skala) wird der IC₅₀-Wert abgelesen.

Structures are written as SMILES.

For the molecule `CCNC(=O)N[C@@H](Cc1ccccc1)C(=O)N[C@@H](Cc1c[nH]cn1)C(=O)N[C@@H](CC1CCCCC1)[C@H](O)CCCc1ccccn1` [Beispiel 11, 1-Cyclohexyl-6-(2-pyridyl)-2S-(N-(ethylaminocarbonyl-Phe-His)-amino)-3R-hexanol], the IC50 turned out to be 900 nM.
As for `CC(C)(C)NC(=O)N[C@@H](Cc1ccccc1)C(=O)N[C@@H](CC(N)=O)C(=O)N[C@@H](CC1CCCCC1)[C@@H](O)CCCc1ccccn1` [Beispiel 14], the figure is 8000 nM.
For the molecule `CCC[C@H](NC(=O)[C@H](Cc1ccccc1)NC(=O)NC(C)(C)C)C(=O)N[C@@H](CC1CCCCC1)[C@H](O)CCCc1ccccn1` [Beispiel 9, 1-Cyclohexyl-6-(2-pyridyl)-2S-(N-(tert.butylaminocarbonyl-Phe-Nva)-amino)-3R-hexanol], the IC50 is 6500 nM.
As to `CCC[C@H](NC(=O)[C@H](Cc1ccccc1)NC(=O)NC(C)C)C(=O)N[C@@H](CC1CCCCC1)[C@@H](O)CCCc1ccccn1` [Beispiel 2, 1-Cyclohexyl-6-(2-pyridyl)-2S-(N-(isopropylaminocarbonyl-Phe-Nva)-amino)-3S-hexanol], the IC50 turned out to be 620 nM.
Consider `CCC[C@H](NC(=O)[C@H](Cc1ccccc1)NC(=O)NC(C)(C)C(=O)O)C(=O)N[C@@H](CC1CCCCC1)[C@@H](O)CCCc1ccccn1` [Beispiel 29, 1-Cyclohexyl-6-(2-pyridyl)-2S-[N-[(1-carboxy-1-methylethylaminocarbonyl)-Phe-Nva]-amino]-3S-hexanol], for which the IC50 came to 650 nM.
Regarding `CCC[C@H](NC(=O)[C@H](Cc1ccc(OC)cc1)NC(=O)NC(C)(C)C)C(=O)N[C@@H](CC1CCCCC1)[C@@H](O)CCCc1ccccn1` [Beispiel 8], the IC50 is above 10000 nM.
`CCC[C@H](NC(=O)[C@H](Cc1cccs1)NC(=O)NC(C)(C)C)C(=O)N[C@@H](CC1CCCCC1)[C@@H](O)CCCc1ccccn1` [Beispiel 7, 1-Cyclohexyl-6-(2-pyridyl)-2S-(N-(tert.butylaminocarbonyl-Thi-Nva)-amino)-3S-hexanol]: the IC50 came out at 260 nM.
As for `CCC[C@H](NC(=O)[C@H](Cc1ccccc1)NC(=O)NCC(C)(C)N)C(=O)N[C@@H](CC1CCCCC1)[C@@H](O)CCCc1ccccn1` [Beispiel 13, 1-Cyclohexyl-6-(2-pyridyl)-2S-(N-(2-amino-2-methylpropylaminocarbonyl-Phe-Nva)-amino)-3S-hexanol], the figure is 340 nM; as for `CCC[C@H](NC(=O)[C@H](Cc1ccccc1)NC(=O)NC(C)(C)C)C(=O)N[C@@H](CC1CCCCC1)[C@@H](O)CCCc1ccccn1` [Beispiel 6, 1-Cyclohexyl-6-(2-pyridyl)-2S-(N-(tert.butylaminocarbonyl-Phe-Nva)-amino)-3S-hexanol], 400 nM; as for `CC(C)(C)NC(=O)N[C@@H](Cc1ccccc1)C(=O)N[C@@H](Cc1c[nH]cn1)C(=O)N[C@@H](CC1CCCCC1)[C@H](O)CCCc1ccccn1` [Beispiel 10, 1-Cyclohexyl-6-(2-pyridyl)-2S-(N-(tert.butylaminocarbonyl-Phe-His)-amino)-3R-hexanol], above 1000 nM.
As for `CC(C)(C)NC(=O)N[C@@H](Cc1ccccc1)C(=O)N[C@@H](Cc1c[nH]cn1)C(=O)N[C@@H](CC1CCCCC1)[C@@H](O)CCCc1ccccn1` [Beispiel 5], the figure is 1000 nM; as for `CCC[C@H](NC(=O)[C@H](Cc1ccccc1)NC(=O)NCC)C(=O)N[C@@H](CC1CCCCC1)[C@@H](O)CCCc1ccccn1` [Beispiel 4, 1-Cyclohexyl-6-(2-pyridyl)-2S-(N-(ethylaminocarbonyl-Phe-Nva)-amino)-3S-hexanol], 380 nM; as for `CCNC(=O)N[C@@H](Cc1ccccc1)C(=O)N[C@@H](Cc1c[nH]cn1)C(=O)N[C@@H](CC1CCCCC1)[C@@H](O)CCCc1ccccn1` [Beispiel 1, 1-Cyclohexyl-6-(2-pyridyl)-2S-(N-(ethylaminocarbonyl-Phe-His)-amino)-3S-hexanol], 2000 nM.
With `CCC[C@H](NC(=O)[C@H](Cc1ccccc1)NC(=O)NCC(C)(C)C)C(=O)N[C@@H](CC1CCCCC1)[C@@H](O)CCCc1ccccn1` [Beispiel 3, 1-Cyclohexyl-6-(2-pyridyl)-2S-(N-(2,2-dimethylpropylaminocarbonyl-Phe-Nva)-amino)-3S-hexanol], the IC50 was found to be 900 nM.
As for `CCC[C@H](NC(=O)[C@H](Cc1ccccc1)NC(=O)NC(C)C)C(=O)N[C@@H](CC1CCCCC1)[C@H](O)CCCc1ccccn1` [Beispiel 12, 1-Cyclohexyl-6-(2-pyridyl)-2S-(N-(isopropylaminocarbonyl-Phe-Nva)-amino)-3R-hexanol], the figure is 5500 nM.

Values taken from patent EP0370382A2, “Urea dipeptide derivatives with a renin-inhibiting activity, process to produce them, compositions containing them and their use” (HOECHST AKTIENGESELLSCHAFT, priority 1988, dated 1990).
